Results on 19 molecules are retold here after PubChem BioAssay (NCI).

Usually TGI stands for the concentration at which net growth stops. A low value points to more potent growth arrest. In general, GI50 refers to the concentration at which growth is held to half of that of the control.

What all share (test): DTP human tumour cell line panel, 48 h
For assay [1], the system named is DU-145 prostate.
For assay [2], the system named is CAKI-1 renal.
For assay [3], the system named is HT29 colon.
Assay [4] deals with MOLT-4 leukemia.
Assay [5] deals with MDA-MB-435.
For assay [6], the system named is K-562 leukemia.
Assay [7] concerns M14 melanoma.
In assay [8] the test system is MDA-MB-231 breast.
Assay [9] relates to A498 renal.
Assay [10] concerns NCI/ADR-RES ovarian.

Structures are written as SMILES. Values joined by “and” are separate entries in the source; they are usually repeats but may differ in a detail not shown here. Equal entries are not always repeated.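 Dose response: 5 concentrations. Exposure: 48 h. Format: 96-well plates. Endpoint: linear interpolation; highest concentration if not reached. GI50 marks 50% less growth. At the TGI there is no net growth.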

Turning to `CC(C)=CC1C(COC(=O)c2ccccc2Cl)C1(C)C` (stereo not drawn), the TGI in [1], in [2], in [3], in assay [4], in assay [5] and in assay [6] was above 100 µM throughout. Further, the concentration for total growth inhibition (TGI) in assay [7], in [8], in assay [9] and in assay [10] was above 100 µM in each case.
Regarding `CCN(CC)CCCC(C)Nc1c2ccc(Cl)cc2nc2cc(Cl)ccc12` (stereo not drawn), the total growth inhibition concentration (TGI) in assay [2] is 10.7 µM; in assay [3], 8.28 µM; in assay [4], 5.31 µM; in assay [6], 5.05 µM; in assay [9], 21.9 µM.
With `CSC1=C(SC)C(=O)c2cn(C)c(=O)cc2C1=O`, the TGI is 21 µM in assay [1]; 13.1 µM in assay [3]; 3.52 µM in [4]; 3.35 µM in assay [5]; 0.424 µM in [6]; 3.14 µM in [7]. For the same molecule, the values for the TGI in assay [8], in [9] and in [10] were 3.7 µM, 28.4 µM and above 100 µM, respectively.
Take `O=S(=O)(Nc1nccs1)c1ccc([As](=O)(O)O)cc1`: the TGI in [1], in [2], in assay [3], in assay [4], in [5] and in assay [6] was above 100 µM throughout. Further, the concentration for total growth inhibition (TGI) in assay [7], in assay [8], in [9] and in assay [10] was above 100 µM throughout.
For the molecule `CC(C)C(=O)Nc1ccc(-c2nc(-c3cccc(OCCN4CCOCC4)c3)c(-c3ccnc(Br)c3)[nH]2)cc1`, the GI50 in [1] is 4.48 µM; in assay [2] it was 2300 nM; in [4], 2310 nM; in assay [5], 2920 nM; in assay [7], 1930 nM; in assay [8], 3660 nM. In addition, the GI50 in [9] is 1600 nM; in [10] it was 6230 nM. Further, the concentration for total growth inhibition (TGI) in assay [1] is above 100 µM; in assay [2] it was 7.01 µM; in assay [4], above 100 µM; in [5] it was 10 µM; in assay [7], 4.46 µM; in [8], above 100 µM. Besides, the results for the TGI in assay [9] and in assay [10] were 4.74 µM and above 100 µM, respectively.
In the case of `COc1ccc(N2C(=O)C(=O)N(C)C2=O)c2ccccc12`, the TGI in assay [1], in [2], in assay [3], in assay [4], in assay [5] and in [6] was above 10 µM in each case. The TGI in assay [7], in [8], in assay [9] and in assay [10] was above 10 µM each time.
Take `CC(C(=O)NCCNC(=O)CCCC(=O)N(C)O)C(=O)NCCNC(=O)CCCC(=O)N(C)O`: the TGI in [1], in assay [2], in assay [3], in assay [4], in [5] and in assay [6] was above 100 µM in each case. Moreover, the total growth inhibition concentration (TGI) in assay [7], in assay [8], in assay [9] and in assay [10] was above 100 µM each time.
In the case of `CC(=O)Nc1c2sscc-2n(C)c1=O`, the TGI amounted to 5.54 µM in [1]; 3.36 µM in assay [2]; 0.692 µM in [3]; 0.275 µM in assay [4]; 2.51 µM in assay [5]; 5.71 µM in assay [6]. Also, the TGI is 0.865 µM in assay [7], 3.54 µM in [8], 3.27 µM in [9] and 4.22 µM in assay [10].
`CC[C@@]1(O)C(=O)OCc2c1cc1n(c2=O)Cc2cc3c(CN(C)C)c(O)ccc3nc2-1`: the 50% growth inhibitory concentration (GI50) is < 10 nM and 5.06 nM in assay [2]; 66.9 nM and 58.9 nM and 240 nM in assay [3]; < 10 nM and 3.17 nM in [4]; 71.3 nM and 108 nM and 24.3 nM in assay [5]; 847 nM and 393 nM and 3220 nM in assay [8]; 20.5 nM and 29.9 nM in [9]. Also, in assay [10], the concentration for 50% growth inhibition (GI50) is 73.7 nM and 355 nM and 105 nM. Besides, the TGI in assay [3] is 8.1 µM and 20.2 µM and 6.7 µM; in assay [10], 3.22 µM and 19.7 µM and 4.78 µM.
As for `COC1=CC(=O)c2c(c(COC(C)=O)cn2C)C1=O`, the TGI came to 0.247 µM in [1]; 0.22 µM in assay [2]; 0.124 µM in assay [3]; 0.653 µM in [4]; 0.28 µM in assay [5]; 0.707 µM in assay [6]. In addition, the TGI in [7] worked out at 0.195 µM; in assay [8], 1.08 µM; in [9] it was 0.586 µM; in assay [10], 0.295 µM.
As for `OC(c1ccccc1)C1CC2C=CC1C2` (stereo not drawn), the concentration for total growth inhibition (TGI) in assay [2], in assay [3], in assay [4], in assay [6], in [7] and in assay [9] was above 100 µM each time.
Consider `CC1(CO)C(O)CCC2(C)C1C(O)CC1CC3CC12CCC3(O)CO` (stereo not drawn), for which the TGI in assay [2] is above 225 µM; in assay [3], above 225 µM; in [4], above 141 µM; in assay [6] it was above 225 µM; in assay [9], above 225 µM; in assay [10] it was above 225 µM.
Consider `O=[N+]([O-])c1ccc(Cc2nc3cc4ccccc4cc3[nH]2)cc1C(F)(F)F`, for which the concentration for total growth inhibition (TGI) in assay [1] is 57.2 µM; in assay [2], 26.7 µM; in [3] it was above 100 µM; in [4] it was 87.7 µM; in [5], 21 µM; in assay [6], 30.3 µM. Also, the results for the total growth inhibition concentration (TGI) in [7], in assay [9] and in assay [10] were 25.2 µM, 33.5 µM and 23.9 µM, respectively.
Consider `O=[N+]([O-])c1ccc(NNN=Nc2ccc(-c3nc4ccccc4[nH]3)cc2)c([N+](=O)[O-])c1`, for which the concentration for total growth inhibition (TGI) in assay [1] is above 100 µM; in assay [2] it was above 100 µM; in assay [3] it was above 100 µM; in [4] it was above 100 µM; in assay [5], above 100 µM; in [6] it was 79.7 µM. Also, the concentration for total growth inhibition (TGI) was above 100 µM in [7], above 100 µM in [8], 89.5 µM in assay [9] and above 100 µM in assay [10].
`O=c1ccc2c(Cl)cccc2o1`: the TGI in assay [1], in assay [2], in assay [4], in [5], in assay [6] and in assay [7] was above 100 µM each time. In addition, the TGI in assay [8], in [9] and in assay [10] was above 100 µM each time.
In the case of `CN(CC(=O)O)CC(=O)O`, the TGI in assay [1], in assay [2], in assay [3], in assay [4], in assay [5] and in assay [6] was above 100 µM throughout. The TGI in [7], in assay [8], in assay [9] and in assay [10] was above 100 µM each time.
In the case of `Clc1ccc(OCc2nnc3sc(SSc4nn5c(COc6ccc(Cl)cc6)nnc5s4)nn23)cc1`, the TGI in assay [1], in [2], in assay [3], in assay [5], in assay [6] and in assay [7] was above 100 µM in each case. Also, the TGI in assay [8] is above 100 µM; in [9], 86 µM; in [10] it was above 100 µM. The GI50 was 77300 nM in assay [2] and 28900 nM in assay [9].
As to `Fc1ccc(Nc2ncc(-c3cc(F)c(Cl)cc3Cl)s2)cc1Cl`, the GI50 in assay [1] is 9.01 µM; in assay [2], 8200 nM; in assay [3] it was 24300 nM; in [4] it was 5460 nM; in [5], 15400 nM; in assay [6], 3.46 µM. In addition, the GI50 in [8] is 2150 nM; in assay [9] it was 11200 nM; in [10], 17700 nM. The TGI in [1] was 30.8 µM; in assay [2] it was 22 µM; in [3], above 100 µM; in assay [4] it was 18.6 µM; in [5], 32.5 µM; in [6] it was 15.5 µM. Also, the concentration for total growth inhibition (TGI) in [8] worked out at 6.87 µM; in [9] it was 29.1 µM; in [10] it was 32.5 µM.
In the case of `C1=Nc2ccccc2Cn2nncc21`, the TGI in assay [2], in [3], in assay [4], in assay [6] and in assay [7] was above 100 µM throughout.
